Patent publication US20180079724A1, “SULFONIC ACID DERIVATIVE COMPOUND, PHOTOACID GENERATOR, RESIST COMPOSITION, CATIONIC POLYMERIZATION INITIATOR, AND CATIONICALLY POLYMERIZABLE COMPOSITION” (ADEKA CORPORATION, priority 2015, published 2018)

Key:
Format in all cases: physicochemical
[1] = UV absorption spectrum in acetonitrile; settings: for Maximum absorption wavelength (nm): absorption in a range of 300 nm to 400 nm; for Molar extinction coefficient ϵ (at maximum absorption wavelength): at λmax in 300 nm to 400 nm
Experimental: (§1) The sulfonic acid derivative compound of Compound No. 4 and Comparative Compound 1 represented by the formula below were each dissolved in acetonitrile, and their absorption spectra were measured using a solar photometer U-3010 to determine the values of λmax and α (molar extinction coefficient) for absorption in a range of 300 nm to 400 nm as well as the value of E at 365 nm. In addition, their solubility to propylene glycol monomethyl ether acetate at 25° C. was evaluated. As for the solubility, the concentration of each compound was increased by 1%-by-mass increments, and the concentration at which no compound was left undissolved was determined to indicate the solubility in terms of this concentration.

[2] = Solubility to propylene glycol monomethyl ether acetate; settings: propylene glycol monomethyl ether acetate at 25° C., 1%-by-mass increments
Experimental: as §1

[3] = Acid generation rate (photodegradation rate by HPLC after 365 nm UV irradiation); settings: 365 nm UV 100 mW/cm^2, 1.5×10^−4 mol/L in acetonitrile/water=9/1
Experimental: For each of the sulfonic acid derivative compound of Compound No. 4 and Comparative Compound 1, a 1.5×10^−4 mol/L acetonitrile/water mixed solution (volume ratio: acetonitrile/water=9/1) was prepared, and exactly 5.0 mL of the mixed solution was placed in a Petri dish having an inner diameter of 42 mm. Using a UV lamp and a cut filter transmitting only light having a wavelength of about 365 nm, which are manufactured by Hoya Candeo Optronics Corporation, the mixed solution was irradiated with UV having an intensity of 100 mW/cm^2. The irradiation was performed for 0.5 seconds, 1 second and 3 seconds for each solution. After this exposure, the photodegradation rate (%) was determined by HPLC as the acid generation rate.

Transmittance at 365 nm = settings: in acetonitrile
Experimental: The sulfonic acid derivative compound of Compound No. 4 and Comparative Compound 2 represented by the formula below were each dissolved in acetonitrile, and their absorption spectra were measured using a solar photometer U-3010 to determine the transmittance at 365 nm.

Compound	Molar extinction coefficient, ϵ, at 365 nm [1]	Maximum absorption wavelength (nm) [1] [nm]	Molar extinction coefficient ϵ (at maximum absorption wavelength) [1]	Solubility (% by mass) [2] [% by mass]	Photodegradation rate (%) ([3]; 0.5 seconds)	Photodegradation rate (%) ([3]; 1 second)	Photodegradation rate (%) ([3]; 3 seconds)	Transmittance at 365 nm (%) (Transmittance at 365 nm)
O=C1c2cccc3cccc(c23)C(=O)N1OS(=O)(=O)C(F)(F)F [Comparative Compound 1]	0.7 × 10^3	336.0	1.42 × 10^4	1.9	21.4	36.9	68.4	–
CCCCc1cc2c3c(cccc3c1)C(=O)N(OS(=O)(=O)C(F)(F)F)C2=O [Compound No. 4]	5.40 × 10^3	339.5	1.31 × 10^4	20	62.0	86.7	100	34.1
CCCCc1ccc2c3c(cccc13)C(=O)N(OS(=O)(=O)C(F)(F)F)C2=O [Comparative Compound 2]	–	–	–	–	–	–	–	1.1
